The values that follow come from patent US9382249B2, “Antitumor aza-benzo [f] azulen derivative, method for preparing same, and use thereof” (TIANYI BIOSCIENCE CO. LTD., priority 2012, dated 2016).

Series [1] has as its system human gastric cancer SGC-7901 tumor transplanted in nude mice. The experiment in a line: Growth inhibition of human gastric cancer SGC-7901 tumor transplanted in nude mice. Format: in vivo. The settings on record: SGC-7901 xenograft. The procedure:
(§1) Method: 1. Establishing model of human gastric cancer SGC-7901 tumor transplanted in nude mice, and animal groups: SGC_7901 cell lines were cultured with medium RPMI1640 containing 10% fetal bovine serum. SGC-7901 cells at logarithmic growth phase were trypsinized into single cell suspension. Final concentration of the cell was adjusted with medium RPMI1640 into 5×10^7/mL. 0.2 mL of cell suspension was injected subcutaneously into right anterior axillary of each nude mouse. 14 days after inoculation, when the tumor size grew to about 130 to 180 mm^3, the nude mice were randomized into five groups according to tumor size and body weight of mice, with 8-12 mice in each group. 5 groups were: a blank control group (purified water containing 0.5% of hydroxypropyl methylcellulose and 0.1% Tween 80, administered through gavage, each at morning and evening, for 10 days), 12.5, 25 and 50 mg/kg of I-1 treatment group (administered through gavage, each at morning and evening, for 10 days), and 100 mg/kg cyclophosphamide (CYP) group (by intraperitoneal injection, once every 5 days, for 2 weeks), respectively.
(§2) 2. Growth situation of subcutaneous human gastric cancer tumor transplanted in nude mice and inhibitory effect was observed: from the dosing day, body weight of nude mouse as well as the maximum diameter (D) and minimum diameter (d) of tumor were observed every two days. The tumor size was calculated following the formula V=Dd^2/2, and the tumor growth curve was plotted. At the end of the experiment, the tumor was dissected in whole and picture was taken. Growth rate of nude mouse body weight before and after treatment=[(body weight after treatment−body weight before treatment)/body weight before treatment]*100%; tumor inhibition rate=[1−(tumor size after treatment in the experiment group−tumor size before treatment in the experiment group)/(tumor size after treatment in the control group−tumor size before treatment in the control group)]*100%
Background: In xenograft studies the graft and the host belong to different species.

Series [2] has as its system human gastric cancer MGC-803 tumor transplanted in nude mice. Description: Growth inhibition of human gastric cancer MGC-803 tumor transplanted in nude mice. Format: in vivo. The settings on record: MGC-803 xenograft. The protocol:
(§3) Method: 1. Establishing model of human gastric cancer MGC-803 tumor transplanted in nude mice, and animal groups: MGC-803 cell lines were cultured with medium RPMI1640 containing 10% fetal bovine serum. MGC-803 cells at logarithmic growth phase were trypsinized into single cell suspension. Final concentration of the cell was adjusted with medium RPMI1640 into 5×10^7/mL. 0.2 mL of cell suspension was injected subcutaneously into right anterior axillary of each nude mouse. 8 days after inoculation, when the tumor size grew to about 110 mm^3, the mice were randomized into five groups according to tumor size and body weight of mice, with 10 mice in each group. 5 groups were: a blank control group (purified water containing 0.5% of hydroxypropyl methylcellulose and 0.1% Tween 80, administered through gavage, once per day, for […]), 4, 6 and 9 mg/kg of I-2 treatment group (administered through gavage, once per day, for 17 days), and 100 mg/kg cyclophosphamide group (by intraperitoneal injection, once every 7 days, for 3 weeks), respectively.
as §2, with “3-4” for “two”

The nature of series [3]: Body weight change / toxicity in SGC-7901 tumor-bearing nude mice. The procedure:
as §1
(§4) 2. […] The tumor size was calculated following the formula V=Dd^2/2, and the tumor growth curve was plotted. […]

Series [4] concerns human gastric cancer cell line MGC-803. Description: MTT growth inhibition assay, MGC-803. The settings on record: MGC-803, MTT, 96 hours incubation. Format: cell-based. The protocol: (§5) Method: Cells in the logarithmic growth phase (human gastric cancer cell lines SGC-7901, MGC-803, human oral epidermoid carcinoma cell line KB, human non-small cell lung cancer cell line A549, human breast ductal cancer cell line BT-549, human prostate cancer cell line PC-3, human colon cancer cell line HT-29, human brain astrocytic glioblastoma cell line U-87MG and a human hepatoma cell line SMMC-7721) at a concentrations of 1.5×10^4 were inoculated in 96 well plates. The original medium was removed after cell culture for 24 hours until adherence. The tests included blank control group and drug treatment group. For the control group, the medium was replaced with 1640 medium containing 10% fetal bovine serum; for the drug treatment group, the medium was replaced with medium containing compounds I-1, I-2 and I-3 to be tested at concentrations of 100 μM, 50 μM, 10 μM, 1 μM, 0.1 μM, 0.01 μM, 0.001 μM, 0.0001 μM and 0.00001 μM. After incubation for 96 hours add MTT at a concentration of 5 mg/mL, and resume incubation in a CO2 incubator for 4 hours. And then along the upper part of the culture solution, remove 100 μL, of supernatant, add 100 μL of DMSO, allow to place at a dark for 10 minutes. With a microplate reader (a product from Sunrise company), absorbance was measured (at wavelength 570 nm), and cell survival situation is calculated based on the absorbance. Six duplicated wells were set for each treatment. Cell viability (%)=ΔODdrug treatment/ΔODblank control×100.
For orientation: Tetrazolium assays rely on reduction of a dye to a coloured formazan, in cell work by metabolically active cells.

The test system of series [5] is human breast ductal cancer cell line BT-549. The experiment in a line: MTT growth inhibition assay, BT-549. Format: cell-based. The following applies: BT-549, MTT, 96 hours incubation. The protocol: as §5
For series [6], the system named is human oral epidermoid carcinoma cell line KB. The experiment in a line: MTT growth inhibition assay, KB. Format: cell-based. The following applies: 96 hours incubation. The procedure:
as §5

The subject of series [7] is human hepatoma cell line SMMC-7721. Description: MTT growth inhibition assay, SMMC-7721. Format: cell-based. The settings on record: SMMC-7721, MTT, 96 hours incubation. The protocol: as §5
The test system of series [8] is human colon cancer cell line HT-29. The experiment in a line: MTT growth inhibition assay, HT-29. Format: cell-based. The settings on record: HT-29, MTT, 96 hours incubation. The protocol: as §5
The subject of series [9] is human brain astrocytic glioblastoma cell line U-87MG. Description: MTT growth inhibition assay, U-87MG. The settings on record: U-89MG [sic], 96 hours incubation. Format: cell-based. The protocol: as §5
The test system of series [10] is human prostate cancer cell line PC-3. Description: MTT growth inhibition assay, PC-3. Format: cell-based. The settings on record: PC-3, MTT, 96 hours incubation. The protocol: as §5
The test system of series [11] is human gastric cancer cell line SGC-7901. The experiment in a line: MTT growth inhibition assay, SGC-7901. The settings on record: SGC-7901, MTT, 96 hours incubation. Format: cell-based. The procedure: as §5
Series [12] deals with a variety of human tumor cell lines. The experiment in a line: Growth inhibition on various strains of human tumor cell with MTT assay (overall statements). The settings on record: in words. Format: cell-based. The protocol: as §5, with “Six duplicated wells were set for each treatment. Cell viability (%)=ΔODdrug treatment/ΔODblank control×100.” left out
The subject of series [13] is human non-small cell lung cancer cell line A549. The experiment in a line: MTT growth inhibition assay, A549. Format: cell-based. The settings on record: 96 hours incubation. The procedure: as §5
Series [14] in a line: Body weight change / toxicity in MGC-803 tumor-bearing nude mice. The protocol:
as §3, §4

The structures appear in SMILES notation.

Usually IC50 stands for the concentration that gives 50% inhibition. Read a low IC50 as inhibition by little substance.

Consider `O=P1(N(CCCl)CCCl)NCCCO1` (centres unmarked) [CYP, cyclophosphamide, reference compound], for which the Tumor inhibition rate is 39.5% in series [1] (100 mg/kg, intraperitoneal injection, once every 5 days, for 2 weeks) and 62.4% in series [2] (100 mg/kg, intraperitoneal injection, once every 7 days, for 3 weeks).
Consider `Cc1cc2c(cn1)C(c1ccccc1Cl)=Nc1c(n[nH]c1C)N2` [Compound I-1], for which the Toxic side effect result in series [3] (12.5, 25 and 50 mg/kg, gavage, twice daily, 10 days) is “negligible toxic side effect”. Moreover, in series [3] (only for the highest dose of 50 mg/kg, FIG. 3), the “Effect on weight gain of nude mouse” value was “mild effect on weight gain”. The IC50 in series [4] came out at 0.98 ± 0.04 µM; in series [5], 0.39 ± 0.23 µM; in [6], 1.35 ± 0.05 µM; in series [7] it was 0.14 ± 0.03 µM; in series [8], 0.16 ± 0.04 µM; in [9], 0.4 ± 0.02 µM. The IC50 in series [10] came to 1.9 ± 0.39 µM; in series [11] it was 0.29 ± 0.13 µM; in series [13], 0.69 ± 0.24 µM. Also, the Tumor inhibition rate is on record as 67.5% in series [1] (12.5 mg/kg, gavage, each at morning and evening, for 10 days); 83% in series [1] (25 mg/kg, gavage, each at morning and evening, for 10 days); 88.6% in [1] (50 mg/kg, gavage, each at morning and evening, for 10 days). Also, the “Inhibitory effect on the growth of a variety of human tumor cell lines” value in [12] is listed as “very significant inhibition”.
As for `CCc1cc2c(cn1)C(c1ccccc1Cl)=Nc1c(n[nH]c1C)N2` [Compound I-2, 9-(2-chlorophenyl)-6-ethyl-1-methyl-2,4-dihydrogen-2,3,4,7,10-pentaaza-benzo [f] azulene], in series [14] (4, 6 and 9 mg/kg, gavage, once per day, 17 days), the Toxic side effect result is given as “negligible toxic side effect”. For the same compound, the “Effect on weight gain of nude mouse” value in series [14] (only for the highest dose of 9 mg/kg on treatment day 3-6, FIG. 6) was “mild effect on weight gain”. In addition, the IC50 in [4] came out at 0.7 ± 0.02 µM; in series [5] it was 0.07 ± 0.03 µM; in [6], 0.62 ± 0.01 µM; in series [7], 0.04 ± 0.01 µM; in series [8], 0.08 ± 0.01 µM; in [9], 0.06 ± 0.04 µM. The figures for the IC50 in series [10], in [11] and in series [13] were 0.85 ± 0.1 µM, 0.09 ± 0.01 µM and 0.25 ± 0.14 µM, respectively. In addition, the “Inhibitory effect on the growth of a variety of human tumor cell lines” value in [12] is “very significant inhibition”. In addition, the Tumor inhibition rate in [2] (4 mg/kg, gavage, once per day, for 17 days) was 72.5%; in [2] (6 mg/kg, gavage, once per day, for 17 days), 97.3%; in series [2] (9 mg/kg, gavage, once per day, for 17 days), 100%.
As to `Cc1cc2c(cn1)C(c1ccccc1F)=Nc1c(n[nH]c1C)N2` [Compound I-3], the IC50 worked out at 4.86 ± 0.39 µM in [4]; 1.95 ± 0.23 µM in [5]; 7.27 ± 0.59 µM in [6]; 0.82 ± 0.19 µM in [7]; 0.74 ± 0.08 µM in [8]; 1.94 ± 0.24 µM in [9]. Further, the IC50 was found to be 11.3 ± 1.3 µM in [10], 1.63 ± 0.13 µM in series [11] and 3.25 ± 0.25 µM in series [13].
